Source: PubChem BioAssay (NCI)
“And” between values parts separate entries of the source, which are not always exact repeats. Identical values can stand only once.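 48-hour exposure; five concentrations; linearly interpolated endpoints. GI50 is the concentration that inhibits growth by half. TGI: concentration producing complete growth inhibition.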

Assays:
Assay in all cases: NCI-60 cell line screen, 48 h
DLD-1 colon = test system: DLD-1 colon
DMS 273 small cell lung = test system: DMS 273 small cell lung
HOP-18 NSCLC = test system: HOP-18 NSCLC
KM20L2 colon = test system: KM20L2 colon
M19-MEL melanoma = test system: M19-MEL melanoma
SNB-78 CNS = test system: SNB-78 CNS
XF 498 CNS = test system: XF 498 CNS
RXF-631 renal = test system: RXF-631 renal
MDA-N = test system: MDA-N
SN12K1 renal = test system: SN12K1 renal

Row | Structure (SMILES) | TGI (DLD-1 colon) | TGI (DMS 273 small cell lung) | TGI (HOP-18 NSCLC) | TGI (KM20L2 colon) | TGI (M19-MEL melanoma) | TGI (SNB-78 CNS) | TGI (XF 498 CNS) | TGI (RXF-631 renal) | TGI (MDA-N) | further results
1 | O=C1C2CC=CCC2C(=O)C12CCc1ccccc12 (stereo unspecified) | > 100 µM | > 100 µM | > 100 µM | > 100 µM | > 100 µM | > 100 µM | > 100 µM | – | – | –
2 | COc1cc2cc3c4c(cc(OC)c(OC)c4c2cc1OC)CCN3C(=O)N(C)C | > 100 µM | > 100 µM | – | > 100 µM | > 100 µM | > 100 µM | – | – | – | –
3 | C/C(CC(=O)Nc1ccc(Cl)cc1)=N\NC(=O)C[n+]1ccccc1 | > 100 µM | > 100 µM | – | > 100 µM | – | > 100 µM | > 100 µM | > 100 µM | – | –
4 | Cc1ccc(C(=O)N2c3ccccc3N(C)n3cccc3C2CC(=O)O)cc1 (stereo unspecified) | > 100 µM | > 100 µM | – | > 100 µM | > 100 µM | > 100 µM | > 100 µM | – | – | –
5 | CC(=O)OCc1ccc(O)c(C=O)c1 | – | – | – | – | – | – | – | – | > 100 µM | –
6 | CC(C)(c1ccc(Oc2ccc(C#N)c(C#N)c2)cc1)c1ccc(Oc2ccc(C#N)c(C#N)c2)cc1 | > 100 µM | – | – | > 100 µM | > 100 µM | – | – | > 100 µM | – | GI50 (DLD-1 colon): > 100 µM; GI50 (KM20L2 colon): > 100 µM; GI50 (M19-MEL melanoma): > 100 µM; GI50 (RXF-631 renal): > 100 µM
7 | NC(=S)N/N=C/c1ccc(O)cn1 | > 1500 µM | 31.1 µM and 37 µM and 16.7 µM | 134 µM and 974 µM | > 1500 µM | – | – | 94 µM and 168 µM | – | > 1180 µM | GI50 (DLD-1 colon): 39.6 µM and 31 µM; GI50 (DMS 273 small cell lung): 8.83 µM and 5.35 µM; GI50 (HOP-18 NSCLC): 21 µM; GI50 (KM20L2 colon): 31.7 µM and 19.7 µM and 10.6 µM; GI50 (M19-MEL melanoma): 15.4 µM and 9.44 µM; TGI (SN12K1 renal): > 1500 µM; GI50 (XF 498 CNS): 15.6 µM
8 | COC1=C2C[C@H](O)C(C)C[C@@]2(OC)OC1=O (stereo partly specified) | > 100 µM | > 100 µM | – | – | > 100 µM | > 100 µM | > 100 µM | > 100 µM | – | –
9 | Clc1cccc(N2CCN(CCN3CCc4c([nH]c5ccccc45)C3c3cccnc3)CC2)c1 (stereo unspecified) | > 100 µM | > 100 µM | > 100 µM | 77.8 µM | > 100 µM | > 100 µM | > 100 µM | – | > 100 µM | –
10 | CC(C)(O)[C@@H]1CC[C@@]2(C)CCC[C@H](O)[C@H]2C1 | > 100 µM | > 100 µM | > 100 µM | > 100 µM | > 100 µM | – | > 100 µM | > 100 µM | – | –
11 | N#C/C(=C\Nc1ccccn1)C(=O)c1ccco1 | – | – | – | – | – | – | – | – | > 100 µM | –
12 | Clc1ccc(C(c2ccc(Cl)cc2)N2CCNCC2)cc1 | – | – | – | – | – | – | – | – | 3.62 µM | –
13 | CC(=O)C1COC(O)C1C (stereo unspecified) | – | – | – | – | – | – | – | – | 43.5 µM | –
14 | O=[P+](O)c1cc2ccccc2c2ccccc12 | > 100 µM | > 100 µM | > 100 µM | > 100 µM | > 100 µM | > 100 µM | – | – | – | –
15 | CSc1nc(SC)c2c(C(N)=S)[nH]nc2n1 | > 100 µM | 98.3 µM | – | 85 µM | 91.7 µM | 85.8 µM | – | 93.7 µM | – | –
16 | COC(=O)[C@@]1(O)CC(C)C=C1C=O (stereo partly specified) | > 100 µM | 34.6 µM | > 100 µM | > 100 µM | > 100 µM | > 100 µM | > 100 µM | – | – | –
17 | CCOC(=O)NC1=C(N2CC2)C(=O)C(NC(=O)OCC)=C(N2CC2)C1=O | 38 µM and 78.9 µM | 20.5 µM and 41.4 µM | 24.4 µM and 49.9 µM | 31.6 µM and 45.3 µM | 19.2 µM and 12.5 µM | 24.2 µM and 28.5 µM | 8.75 µM | 30.3 µM and 54.6 µM | 5.41 µM | GI50 (DLD-1 colon): 8.56 µM; GI50 (DMS 273 small cell lung): 1.01 µM; GI50 (HOP-18 NSCLC): 8.57 µM; GI50 (RXF-631 renal): 6.73 µM and 14.4 µM; TGI (SN12K1 renal): 15.7 µM; GI50 (SNB-78 CNS): 9.36 µM
18 | COc1ccc(-c2nnc(-c3c(C)n(C)n(-c4ccccc4)c3=O)o2)cc1 | > 100 µM | > 100 µM | > 100 µM | > 100 µM | > 100 µM | > 100 µM | > 100 µM | – | – | –
19 | OC(C1CO1)C(O)C1CO1 (stereo unspecified) | > 150 µM | 76.9 µM | 150 µM | 150 µM | 150 µM | 150 µM | 133 µM | – | 134 µM and 284 µM | GI50 (MDA-N): 92.2 µM; TGI (SN12K1 renal): 150 µM
20 | CCCCCCCC(=O)OCC1OC(n2cc(F)c(=O)[nH]c2=O)C(NC(=O)OCc2ccccc2)C(O)C1O (stereo unspecified) | – | > 100 µM | – | > 100 µM | > 100 µM | > 100 µM | – | – | – | –
21 | COc1cc([C@H]2c3cc4c(cc3[C@H](NCc3ccc([N+](=O)[O-])cc3)C3COC(=O)[C@H]32)OCO4)cc(OC)c1O (stereo partly specified) | > 43.5 µM | > 100 µM | – | 14.4 µM | > 100 µM | > 100 µM | 20.4 µM | – | – | –
22 | CCC(=O)C(C)C(=O)C(=O)C(=O)OC (stereo unspecified) | > 100 µM | > 100 µM | > 100 µM | > 100 µM | > 100 µM | > 100 µM | > 100 µM | > 100 µM | – | –
23 | O=C(Nc1ccc2[nH]c(C(=O)N3CC(CCl)c4c3cc([N+](=O)[O-])c3ccccc43)cc2c1)c1cc2ccccc2o1 (stereo unspecified) | – | – | – | – | – | – | – | – | > 1100 µM | GI50 (MDA-N): > 1100 µM
